In US8440720B2, “Methods of use of antiviral compounds” (Influmedix, Inc., priority 2009, dated 2013):

Target: T1, M2(S31) (Influenza A virus, UniProt P0DOF5)
T1 construct: expressed in transfected cells; host or cells: CHO cell membranes
Assay: Cell-free electrophysiology of M2 proton channels on solid supported membranes (IonGate SURFE2R)
Format: biochemical
Conditions: 25 μM compound, activation by pH jump 7.0 to 6.0, read-out: IonGate_M2(S31)_Screen % Inhibition at 25 μM

T1 sequence (P0DOF5 whole entry): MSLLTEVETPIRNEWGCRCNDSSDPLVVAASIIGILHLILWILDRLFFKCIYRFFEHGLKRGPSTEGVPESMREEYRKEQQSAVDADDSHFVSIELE

Q: For NCC(O)C12CC3CC(CC(C3)C1)C2 (racemic) [Cpd 5], which inhibition at 25 µM is on record?
A: 51 to 95%

Q: With c1ncn(C23CC4CC(CC(C4)C2)C3)n1 [Cpd 1] as the compound, how does the inhibition at 25 µM read?
A: 11 to 50%

Q: How did the inhibition at 25 µM turn out when c1cn(C23CC4CC(CC(C4)C2)C3)cn1 [Cpd 2] was run?
A: 11 to 50%

Q: How did the inhibition at 25 µM turn out when Nc1nc(N)n(C23CC4CC(CC(C4)C2)C3)n1 [Cpd 3] was run?
A: 11 to 50%

Q: With Nc1ccn(C23CC4CC(CC(C4)C2)C3)n1 [Cpd 4] as the compound, how does the inhibition at 25 µM read?
A: 11 to 50%

Q: For C1CNC(C23CC4CC(CC(C4)C2)C3)=N1 [Cpd 6], which inhibition at 25 µM is on record?
A: 51 to 95%

Q: With NCC12CC3CC(C1)C(O)C(C3)C2 (stereo not shown) [Cpd 7] as the compound, how does the inhibition at 25 µM read?
A: 11 to 50%

Q: How did the inhibition at 25 µM turn out when NCC12CC3CC(C1)C(F)C(C3)C2 (stereo not shown) [Cpd 8, C-(4-Fluoro-adamantan-1-yl)-methylamine] was run?
A: 51 to 95%

Q: CC1(O)C2CC3CC1CC(CN)(C3)C2 (stereo not shown) [Cpd 11, 5-Aminomethyl-2-methyl-adamantan-2-ol] was tested. Which inhibition at 25 µM did it give?
A: 11 to 50%

Q: How did the inhibition at 25 µM turn out when NC12CC3CC(C1)CC(F)(C3)C2 [Cpd 12] was run?
A: 51 to 95%

Q: NC12CC3CC(C1)C(F)C(C3)C2 (stereo not shown) [Cpd 13, 4-Fluoroadamantan-1-amine] was tested. Which inhibition at 25 µM did it give?
A: 51 to 95%

Q: How did the inhibition at 25 µM turn out when NC12CC3CC(C1)C(O)C(C3)C2 (stereo not shown) [Cpd 14] was run?
A: 11 to 50%

Q: Which inhibition at 25 µM does the source give for NC12CC3CC(C1)C(=O)C(C3)C2 [Cpd 15] here?
A: 11 to 50%

Q: Which inhibition at 25 µM does the source give for N#CC1C2CC3CC1CC(N)(C3)C2 (stereo not shown) [Cpd 16, 5-Amino-adamantane-2-carbonitrile] here?
A: 51 to 95%

Q: How did the inhibition at 25 µM turn out when NC12CC3CC(C1)C(F)(F)C(C3)C2 [Cpd 17, 4,4-Difluoro-adamantan-1-ylamine] was run?
A: 11 to 50%

Q: For CC1(F)C2CC3CC1CC(N)(C3)C2 (stereo not shown) [Cpd 18, 4-Fluoro-4-methyl-adamantan-1-ylamine], which inhibition at 25 µM is on record?
A: 51 to 95%

Q: With NC12CC3CC(C1)C(=S)C(C3)C2 [Cpd 19, 5-Amino-adamantane-2-thione] as the compound, how does the inhibition at 25 µM read?
A: 11 to 50%

Q: For NC12CC3CC(C1)C(S)C(C3)C2 (stereo not shown) [Cpd 20, 5-Amino-adamantane-2-thiol], which inhibition at 25 µM is on record?
A: 11 to 50%

Q: With NC12CC3CC(C1)C(CF)C(C3)C2 (stereo not shown) [Cpd 21, 4-Fluoromethyl-adamantan-1-ylamine] as the compound, how does the inhibition at 25 µM read?
A: 51 to 95%

Q: Which inhibition at 25 µM does the source give for NC12CC3CC(C1)C(=NO)C(C3)C2 [Cpd 23, 5-Amino-adamantan-2-one oxime] here?
A: 11 to 50%

Q: For NC12CC3CC(C1)C1(OCCO1)C(C3)C2 [Cpd 24], which inhibition at 25 µM is on record?
A: 11 to 50%

Q: COC1C2CC3CC1CC(CN)(C3)C2 (stereo not shown) [Cpd 25, C-(4-Methoxy-adamantan-1-yl)-methylamine] was tested. Which inhibition at 25 µM did it give?
A: 51 to 95%

Q: N#CC1C2CC3CC1CC(CN)(C3)C2 (stereo not shown) [Cpd 26, 5-Aminomethyl-adamantane-2-carbonitrile] was tested. Which inhibition at 25 µM did it give?
A: 51 to 95%

Q: For O=[N+]([O-])CC12CC3CC(C1)C(O)C(C3)C2 (stereo not shown) [Cpd 27, 5-Nitromethyl-adamantan-2-ol], which inhibition at 25 µM is on record?
A: 11 to 50%

Q: O=[N+]([O-])CC12CC3CC(C1)C(F)C(C3)C2 (stereo not shown) [Cpd 28, 4-Fluoro-1-nitromethyl-adamantane] was tested. Which inhibition at 25 µM did it give?
A: 11 to 50%

Q: Which inhibition at 25 µM does the source give for NC12CC3CC(C1)CC(S)(C3)C2 [Cpd 29] here?
A: 51 to 95%

Q: Which inhibition at 25 µM does the source give for O=[N+]([O-])C12CC3CC(CC(F)(C3)C1)C2 [Cpd 30, 3-Fluoro-1-nitro-adamantane] here?
A: 1 to 10%

Q: For N=C(N)NC12CC3CC(CC(F)(C3)C1)C2 [Cpd 31, N-(3-Fluoro-adamantan-1-yl)-guanidine], which inhibition at 25 µM is on record?
A: 11 to 50%

Q: How did the inhibition at 25 µM turn out when COC12CC3CC(CC(N)(C3)C1)C2 [Cpd 32] was run?
A: 1 to 10%

Q: How did the inhibition at 25 µM turn out when NC12CC3CC(CC(C3)C1O)C2 (stereo not shown) [Cpd 34] was run?
A: 51 to 95%

Q: With CC1(O)C2CC3CC(C2)CC1(N)C3 (stereo not shown) [Cpd 35, 1-Amino-2-methyl-adamantan-2-ol] as the compound, how does the inhibition at 25 µM read?
A: 11 to 50%
